# Where two headings read alike, the source gives them in different places.
# Experiments:
# [1] = tested on: DLD-1 human colon cancer cells; experiment: in vitro cell growth inhibition assay using DLD-1 cells; format: cell-based
# [2] = tested on: U937 human histiocytic lymphoma cells; experiment: U937 Mitotic Block Reversibility Assay; format: cell-based; conditions: for reversibility of induced mitotic blocks: blocks sustained 10 hour after drug washout
# [3] = in vitro cell growth inhibition, DLD-1 human colon cancer cells, read-out: DLD-1 mean IC50
# [4] = Homo sapiens, DLD-1, read-out: DLD-1 mean IC50
Structure (SMILES),Reversibility Ratio [2],"IC50 [1, 4]",Complete Mitotic Block 0 hour [2],Complete Mitotic Block 10 hour [2],IC50 ([1]; read-out: DLD-1 mean IC50),also measured
C=C1CC2CCC34CC5OC6C(OC7CCC(CC(=O)C[C@H]8C(CC9OC(CCC1O2)CC(C)C9=C)OC(CC(O)CO)C8OC)OC7C6O3)C5O4 (some centres unmarked) [Compound B1793],14.7,–,–,–,–,"IC50 [1, 3]: 0.93 nM; Complete Mitotic Block 10 hour ([2]; after washout, 12 h pretreatment, U937 cells): 44 nM; Complete Mitotic Block 0 hour ([2]; before washout, 12 h pretreatment, U937 cells): 3 nM"
C=C1CC2CCC34CC5OC6C(OC7CCC(CC(=O)CC8C(CC9OC(CCC1O2)CC(C)C9=C)OC(CC(O)CO)C8OC)OC7C6O3)C5O4 (centres unmarked) [Compound B1794],–,–,–,–,–,"IC50 [1, 3]: 12.2 nM"
C=C1CC2CCC34CC5OC6C(OC7CCC(CC(=O)CC8C(CC9OC(CCC1O2)CC(C)C9=C)OC(CC(O)CN=[N+]=[N-])C8OC)OC7C6O3)C5O4 (centres unmarked) [Compound B1922],10.0,0.53 nM,3 nM,30 nM,–,–
C=C1CC2CCC34CC5OC6C(OC7CCC(CC(=O)CC8C(CC9OC(CCC1O2)CC(C)C9=C)OC(CC(O)CNC(=O)C(=O)c1ccccc1)C8OC)OC7C6O3)C5O4 (centres unmarked) [Compound B1930],–,–,–,–,0.87 nM,–
C=C1CC2CCC34CC5OC6C(OC7CCC(CC(=O)CC8C(CC9OC(CCC1O2)CC(C)C9=C)OC(CC(=O)CO)C8OC)OC7C6O3)C5O4 (centres unmarked) [Compound B1934],10.0,1.05 nM,3 nM,30 nM,–,–
C=C1CC2CCC34CC5OC6C(OC7CCC(CC(=O)CC8C(CC9OC(CCC1O2)CC(C)C9=C)OC(CC(O)CNC(=O)Cc1cccnc1)C8OC)OC7C6O3)C5O4 (centres unmarked) [Compound B1940],–,–,–,–,5.43 nM,–
C=C1CC2CCC34CC5OC6C(OC7CCC(CC(=O)CC8C(CC9OC(CCC1O2)CC(C)C9=C)OC(CC(O)CNC(=O)Cc1ccccc1)C8OC)OC7C6O3)C5O4 (centres unmarked) [Compound B1973],–,–,–,–,1.15 nM,–
C=C1CC2CCC34CC5OC6C(OC7CCC(CC(=O)CC8C(CC9OC(CCC1O2)CC(C)C9=C)OC(CC(O)COC(=O)Nc1ccccc1)C8OC)OC7C6O3)C5O4 (centres unmarked) [Compound B1984],–,–,–,–,1.01 nM,–
C=C1CC2CCC34CC5OC6C(OC7CCC(CC(=O)CC8C(CC9OC(CCC1O2)CC(C)C9=C)OC(CC(O)CNC(=O)C(=O)c1c[nH]c2ccccc12)C8OC)OC7C6O3)C5O4 (centres unmarked) [Compound B1987],–,–,–,–,1.82 nM,–
C=C1CC2CCC34CC5OC6C(OC7CCC(CC(=O)CC8C(CC9OC(CCC1O2)CC(C)C9=C)OC(CC(=O)CNC(=O)C(=O)c1ccccc1)C8OC)OC7C6O3)C5O4 (centres unmarked) [Compound B1988],–,2.67 nM,–,–,–,–
C=C1CC2CCC34CC5OC6C(OC7CCC(CC(=O)CC8C(CC9OC(CCC1O2)CC(C)C9=C)OC(CC(O)COC(=O)Nc1ccc(Cl)cc1)C8OC)OC7C6O3)C5O4 (centres unmarked) [Compound B1990],–,–,–,–,1.3 nM,–
C=C1CC2CCC34CC5OC6C(OC7CCC(CC(=O)CC8C(CC9OC(CCC1O2)CC(C)C9=C)OC(CC(O)CNC(=O)c1ccc(Cl)cc1)C8OC)OC7C6O3)C5O4 (centres unmarked) [Compound B1991],–,–,–,–,0.69 nM,–
C=C1CC2CCC34CC5OC6C(OC7CCC(CC(=O)CC8C(CC9OC(CCC1O2)CC(C)C9=C)OC(CC(O)COC(=O)Nc1ccc(OC)cc1)C8OC)OC7C6O3)C5O4 (centres unmarked) [Compound B1992],–,–,–,–,0.86 nM,–
C=C1CC2CCC34CC5OC6C(OC7CCC(CC(=O)CC8C(CC9OC(CCC1O2)CC(C)C9=C)OC(CC(O)CNC(=O)C(=O)c1cc(OC)c(OC)c(OC)c1)C8OC)OC7C6O3)C5O4 (centres unmarked) [Compound B2003],–,–,–,–,1.21 nM,–
C=C1CC2CCC34CC5OC6C(OC7CCC(CC(=O)CC8C(CC9OC(CCC1O2)CC(C)C9=C)OC(CC(O)CNC(=O)c1cc(OC)c(OC)c(OC)c1)C8OC)OC7C6O3)C5O4 (centres unmarked) [Compound B2004],–,–,–,–,0.63 nM,–
C=C1CC2CCC34CC5OC6C(OC7CCC(CC(=O)CC8C(CC9OC(CCC1O2)CC(C)C9=C)OC(CC(O)COCc1ccc(F)cc1)C8OC)OC7C6O3)C5O4 (centres unmarked) [Compound B2014],–,0.87 nM,–,–,–,–
C=C1CC2CCC34CC5OC6C(OC7CCC(CC(=O)CC8C(CC9OC(CCC1O2)CC(C)C9=C)OC(CC(CO)OCc1ccc(F)cc1)C8OC)OC7C6O3)C5O4 (centres unmarked) [Compound B2015],–,2.78 nM,–,–,–,–

Structure (SMILES),Reversibility Ratio [2],"IC50 [1, 4]",Complete Mitotic Block 0 hour [2],Complete Mitotic Block 10 hour [2],IC50 ([1]; read-out: DLD-1 mean IC50),also measured
C=CC(F)(F)C(O)CC1OC2CC3OC(CCC4OC(CCC56CC7OC8C(OC9CCC(CC(=O)CC2C1OC)OC9C8O5)C7O6)CC4=C)CC(C)C3=C (centres unmarked) [Compound B2035],–,0.76 nM,–,–,–,–
C=C1C[C@@H]2CCC34CC5OC6C(OC7CCC(CC(=O)CC8C(CC9OC(CCC1O2)CC(C)C9=C)OC(CCO)C8OC)OC7C6O3)C5O4 (some centres unmarked) [Compound B2037],–,0.66 nM,–,–,–,–
C=C1CC2CCC34CC5OC6C(OC7CCC(CC(=O)CC8C(CC9OC(CCC1O2)CC(C)C9=C)OC(CC(O)CC(O)CO)C8OC)OC7C6O3)C5O4 (centres unmarked) [Compound B2086],–,11.2 nM,–,–,–,–
C=C1CC2CCC34CC5OC6C(OC7CCC(CC(=O)CC8C(CC9OC(CCC1O2)CC(C)C9=C)OC(C(O)CO)C8C)OC7C6O3)C5O4 (centres unmarked) [Compound B2090],–,0.52 nM,–,–,–,–
C=C1CC2CCC34CC5OC6C(OC7CCC(CC(=O)CC8C(CC9OC(CCC1O2)CC(C)C9=C)OC(CC(O)CCO)C8OC)OC7C6O3)C5O4 (centres unmarked) [Compound B2091],10.0,1.36 nM,3 nM,30 nM,–,–
C=C1CC2CCC34CC5OC6C(OC7CCC(CC(=O)CC8C(CC9OC(CCC1O2)CC(C)C9=C)OC(C(O)CN)C8C)OC7C6O3)C5O4 (centres unmarked) [Compound B2136],1.0,5.23 nM,3 nM,3 nM,–,–
C=C1C[C@@H]2CCC34CC5OC6C(OC7CCC(CC(=O)CC8C(CC9OC(CCC1O2)CC(C)C9=C)OC(CC(O)COS(C)(=O)=O)C8OC)OC7C6O3)C5O4 (some centres unmarked) [Compound B2294],–,0.8 nM,–,–,–,–
C=C1CC2CCC34CC5OC6C(OC7CCC(CC(=O)CC8C(CC9OC(CCC1O2)CC(C)C9=C)OC(CC(O)CN(C)C)C8OC)OC7C6O3)C5O4 (centres unmarked) [Compound B2320],10.0,–,1 nM,10 nM,1.2 nM,–
C=C1CC2CCC34CC5OC6C(OC7CCC(CC(=O)CC8C(CC9OC(CCC1O2)CC(C)C9=C)OC(CC(O)CNC(C)C)C8OC)OC7C6O3)C5O4 (centres unmarked) [Compound B2330],1.0,–,7 nM,7 nM,4.4 nM,–
C=C1C[C@@H]2CC[C@@]34C[C@H]5O[C@H]6[C@@H](O3)[C@H]3O[C@H](CC[C@@H]3O[C@@H]6[C@H]5O4)CC(=O)C[C@@H]3[C@@H](OC)[C@@H](C[C@H](O)CNC)O[C@H]3C[C@H]3O[C@@H](CC[C@@H]1O2)C[C@@H](C)C3=C [Compound B2336],1.0,–,10 nM,10 nM,3.33 nM,–
C=C1CC2CCC34CC5OC6C(OC7CCC(CC(=O)CC8C(CC9OC(CCC1O2)CC(C)C9=C)OC(CC(O)CNC(C)(C)C)C8OC)OC7C6O3)C5O4 (centres unmarked) [Compound B2339],1.0,–,3 nM,3 nM,4.3 nM,–
C=C1CC2CCC34CC5OC6C(OC7CCC(CC(=O)CC8C(CC9OC(CCC1O2)CC(C)C9=C)OC(CC(O)CNCCO)C8OC)OC7C6O3)C5O4 (centres unmarked) [Compound B2417],1.0,–,10 nM,10 nM,12.7 nM,–
C=C1CC2CCC34CC5OC6C(OC7CCC(CC(=O)CC8C(CC9OC(CCC1O2)CC(C)C9=C)OC(CC(O)CN1CCNCC1)C8OC)OC7C6O3)C5O4 (centres unmarked) [Compound B2418],1.0,–,10 nM,10 nM,3.63 nM,–
C=C1CC2CCC34CC5OC6C(OC7CCC(CC(=O)CC8C(CC9OC(CCC1O2)CC(C)C9=C)OC(CC(O)CN(CCO)CCO)C8OC)OC7C6O3)C5O4 (centres unmarked) [Compound B2489],1.0,–,10 nM,10 nM,14.7 nM,–
C=C1CC2CCC34CC5OC6C(OC7CCC(CC(=O)CC8C(CC9OC(CCC1O2)CC(C)C9=C)OC(CC(O)CNC(CO)CO)C8OC)OC7C6O3)C5O4 (centres unmarked) [Compound B2490],1.0,–,100 nM,100 nM,35.7 nM,–
"CC[C@]1(O)C[C@@H]2CN(CCc3c([nH]c4ccccc34)[C@@](C(=O)OC)(c3cc4c(cc3OC)N(C)[C@H]3[C@@](O)(C(=O)OC)[C@H](OC(C)=O)[C@]5(CC)C=CCN6CC[C@]43[C@@H]65)C2)C1 [Vinblastine, reference compound]",–,–,–,–,–,"Reversibility ratio ([2]; Table 2): 60; Drug concentration required for complete mitotic block, 0 hour (before washout) ([2]; Table 2, U937 cells): 10 nM; Drug concentration required for complete mitotic block, 10 hour (after washout) ([2]; Table 2, U937 cells): 600 nM; reversibility of induced mitotic blocks [2]: highly reversible"
"CC[C@]1(O)C[C@H]2CN(CCc3c([nH]c4ccccc34)[C@@](C(=O)OC)(c3cc4c(cc3OC)N(C=O)[C@H]3[C@@](O)(C(=O)OC)[C@H](OC(C)=O)[C@]5(CC)C=CCN6CC[C@]43[C@@H]65)C2)C1 [Vincristine, reference compound]",–,–,–,–,–,"Reversibility ratio ([2]; Table 2): 1; Drug concentration required for complete mitotic block, 0 hour (before washout) ([2]; Table 2, U937 cells): 10 nM; Drug concentration required for complete mitotic block, 10 hour (after washout) ([2]; Table 2, U937 cells): 10 nM; Interpretation ([2]; Table 2, reversibility of mitotic block): Irreversible; reversibility of induced mitotic blocks [2]: irreversible"
